± gives the expanded uncertainty stated by the source.
Settings: 101 kPa, Liquid mixture 1, Drop weight

## Cc1ccccc1 [toluene] + O
293.15 K
  interfacial tension: 37.1 ± 0.5 mN/m
298.15 K
  interfacial tension: 36.1 ± 0.5 mN/m
303.15 K
  interfacial tension: 35.5 ± 0.5 mN/m
308.15 K
  interfacial tension: 35.1 ± 0.4 mN/m
313.15 K
  interfacial tension: 34.7 ± 0.4 mN/m
323.15 K
  interfacial tension: 34.3 ± 0.4 mN/m
